Measured values from a melting point compilation (Tetko et al.; mined from patent text by program, amines drawn as free bases though some values may be those of a salt).

| Structure (SMILES) | melting point [°C] |
| --- | --- |
| COc1ccc(P(c2cc(C)cc(C(C)(C)C)c2O)c2cc(C)cc(C(C)(C)C)c2O)cc1 | 122 to 124 |
| CNS(=O)(=O)C(=O)CCOc1cc(Oc2nn(C)c(C(F)(F)F)c2Cl)ccc1[N+](=O)[O-] | 170 to 172 |
| CC(C)(C)Oc1c(-c2ccc(S(C)(=O)=O)cc2)cnn(-c2cccc(Cl)c2)c1=O | 232 to 235 |
| O=[N+]([O-])c1ccc2c(c1)C(c1ccccc1F)=NCC(OP(=O)(N1CCOCC1)N1CCOCC1)=N2 | 169 to 172 |
| O=C(N[C@H](Cc1ccccc1)[C@H](O)C(=O)O)c1ccccc1 | 172 to 173 |
| CN(C)C(=O)Cc1c(-c2ccc(Cl)cc2)nn2cccnc12 | 174 to 176 |
| Cn1c(=O)c2[nH]c(C=Cc3cccc(C(F)(F)F)c3)nc2n(C)c1=O | > 300 |
| CC(C)Cc1ccc(-c2ccccc2C(C)C(=O)O)cc1 (stereo not drawn) | 76 to 77 |
| NC(=O)c1ccc(F)c2c1C[C@@H](N(CCCc1c[nH]c3c(F)cc(F)cc13)CC1CC1)CO2 | 147 to 151 |
| CC(C)(C)NCC(Cc1ccc(OCc2ccccc2)cc1)NCc1ccc(C(C)(C)C)cc1 (stereo not drawn) | 63 to 65 |
| Cc1c(F)c(=O)n(-c2cc(OC(C)C)c(Cl)cc2F)c(=O)n1C | 139 to 141 |
| CC(=O)c1ccc(OCCCOc2cc(N)c(C)cc2Cl)c(CCC(F)(F)F)c1O | 111 to 113 |
| O=c1ccc(S(=O)(=O)c2cc3cc(Cl)cc(Cl)c3[nH]2)n[nH]1 | > 250 |
| CC(C)(C)c1cc(CCC(=O)NCc2cccc(NC(=N)c3cccs3)c2)cc(C(C)(C)C)c1O | 163 to 164 |
| CCN(CC)CC(O)Cn1cc(-c2ccccc2)c2ccccc2c1=O (stereo not drawn) | 106 |
| CCOC(=O)C1=C(C)NC(C(F)F)=C(C(=O)OCC)C1c1cccc([N+](=O)[O-])c1 (stereo not drawn) | 148 to 149 |
| C=CCOc1ccc(-c2cc(=O)c3c(O)cc(OCOC)cc3o2)cc1 | 100 to 101 |
| O=[N+]([O-])c1cnc2cccnc2c1NCCOc1ccccc1 | 107 to 108 |
| Cc1ccc2c3c(c(=O)oc2c1)CNCC3 | 128 to 130 |
| C=Cc1cc(O)cc2nc(-c3ccc(O)cc3F)oc12 | 274 to 275 |
| NC(N)=Nc1nc(-c2cccc(CSc3nc4ccccc4[nH]3)n2)cs1 | 209 to 211 |
| O=C(c1cc(N2CCCC(F)(F)C2)ccn1)N(O)Cc1ccccc1 | 140 to 145 |
| ONc1cc(Cl)ccc1Cl | 124 |

| Structure (SMILES) | melting point [°C] |
| --- | --- |
| Cc1c(SCc2ccco2)ccnc1CSc1ccncc1 | 126 to 128 |
| O=[N+]([O-])c1ccc(Cl)c(NC(=S)NCCCO)c1 | 127 |
| CCN1CCCC1CNC(=O)c1nc(Cl)c(N)nc1OC (stereo not drawn) | 155 |
| COc1cccc(Cc2ccc(-c3cnn4c(O)ncnc34)cc2)c1 | 264 to 268 |
| CCOc1cccc(CC(=O)O)c1OCCCc1cn(-c2ccc(C(F)(F)F)cn2)nc1C(CC)CC | 83 to 84 |
| Cc1c(C)c2c(c(C)c1O)CCC(C)(C(=O)NC1CCN(c3ccc(NC(=N)c4cccs4)cc3)C1)O2 (stereo not drawn) | 135 to 138 |
| Cc1cc(C(=O)N2Cc3ccc(C(=O)O)n3Cc3ccccc32)ccc1C1=CCCc2ccccc21 | 150 to 153 |
| O=C(CCCN1C(=O)c2ccccc2C1=O)N1CCC(C2c3ncc(Br)cc3CCc3cc(Cl)cc(Br)c32)CC1 (single isomer, unassigned; (+)) | 100 to 102 |
| Cn1nnnc1SCCCC(=O)c1ccc(C(=O)O)o1 | 154 to 157 |
| O=C1OC(=Cc2c[nH]c3ccccc23)C(=O)N1Cc1cc(C(F)(F)F)cc(C(F)(F)F)c1 | 145 to 146 |
| CN1CCN(c2cc(NC(=O)OC(C)(C)C)c([N+](=O)[O-])cc2I)CC1 | 134 to 136 |
| CCCCCOc1ccc(C(=O)NCCCCCCCNC(=O)c2ccc(OCCCCC)cc2)cc1 | 155 to 156 |
| CCCC(=O)OCC(=O)C1(OC(=O)CCC)CCC2C3CC(C)C4=CC(=O)CCC4(C)C3C(O)CC21C (stereo not drawn) | 103 |
| O=C(OC1c2ccccc2C(=O)N1c1ccc2ccc(Cl)nc2n1)N1CCN(C(=O)C(F)(F)F)CC1 (stereo not drawn) | 218 |
| COc1ccc(Cl)cc1-c1nccn1-c1ccccc1 | 97 to 102 |
| O=C(O)C(CCCN1C(=O)c2ccccc2S1(=O)=O)NS(=O)(=O)c1ccc(-c2ccc(Cl)cc2)cc1 (stereo not drawn) | 177 to 179 |
| Cc1cc(OC(=O)c2ccccc2)ccc1OCc1ccccc1 | 118 to 119 |
| CCN(CC)CCOC(=O)c1cnc2ccn(-c3ccccc3)n2c1=O | 127 to 130 |
| COc1ccc(O)c(C2(CO)C(=O)N(CO)c3cccc(Br)c32)n1 (stereo not drawn) | 142 to 145 |
| O=C(O)Cc1ccc2occ(-c3ccc(C(=O)O)cc3)c2c1 | 278 to 281 |
| COc1cc2c(CCN)c[nH]c2cc1Cl | 150 |
| COc1c(Cl)cc2c(Cl)nc(Cl)nc2c1OC | 154 to 155 |
| O=C1CCN(c2cc(Cl)cc3cccnc23)CC1 | 223 to 225 |

| Structure (SMILES) | melting point [°C] |
| --- | --- |
| O=C(Nc1cccc(C2CN3CCSC3=N2)c1)c1ccc(Cl)nc1 (stereo not drawn) | 135 to 138 |
| Cc1cc(-c2ccnn2-c2ccc(S(N)(=O)=O)c(F)c2C(F)F)ccc1-c1cscn1 | 204 |
| CCn1c(=O)n(O)c(=O)c2cc(F)c(N3CCNCC3)cc21 | 206 to 208 |
| CCCC1CCCCCc2c1oc(=O)c(C(c1ccccc1)C1CC1)c2O (stereo not drawn) | 78 to 84 |
| COc1nnc(N)c(=O)n1C | 198 to 199 |
| CCOC(=O)Cn1nnnc1Cl | 57 to 60 |
| COC(=O)[C@@H]1CCCN1S(=O)(=O)c1ccc(C)c(COc2cccc3c(C)cc(C)nc23)c1C | 50 |
| CS(=O)(=O)c1ccc(C(CC2CCCC2)C(=O)O)cc1 (stereo not drawn) | 152 to 154 |
| COC(=O)CCCCCOc1ccc(NC(=O)COCc2ccccc2)cc1 | 46 to 49 |
| COc1ccc(S(=O)(=O)Nc2cccnc2Nc2ccc(F)cc2)cc1 | 196 to 197 |
| CCN(CC)Cc1ccc(C(N)=O)o1 | 164 to 165 |
| Cc1csc(-c2ccc3c(c2)C=C(C(=O)Nc2ccc(CN(C)C4CCOCC4)cc2)CCO3)c1 | 147 to 148 |
| CCCc1c(OCCCOc2ccccc2)ccc2c1OC(CCC(=O)OC)(CCC(=O)OC)CC2=O | 100 |
| O=C(O)c1cccn2c(=O)c3c(nc12)CCC3 | 189 to 193 |
| O=C(CBr)CCc1ccc(I)cc1 | 76 to 77 |
| COc1ccc(-c2ccc(C(=O)O)cc2)cc1OCCCCc1ccccc1 | 178 to 179 |
| CCCCCCCNC(=O)Nc1c(C(=O)NC2CCN(C(c3ccccc3)c3ccccc3)CC2)cccc1C(C)C | 209 to 212 |
| CC(=O)OCCn1c(C(=O)Nc2ccc(OCC(C)(C)C)c(C#N)c2)cc2ccccc21 | 169 to 170 |
| Cc1c(NC(=O)CC(C)(C)C)c(C)c2c(c1-c1cccc(N)c1)OCC2c1ccc(C(C)C)cc1 (stereo not drawn) | 170 to 172 |
| OC1C(COC2CC2)OC(n2cnc3c(NC4CCCC4)ncnc32)C1O (stereo not drawn) | 126 to 128 |
| CC1(C)CC(=O)Nc2cc3nc(-c4ccc(CO)cc4)[nH]c3cc21 | 214 to 232 |
| O=C1Nc2ccccc2C12COc1cc3nccnc3cc12 (stereo not drawn) | 206 to 207 |
